According to ChEMBL document CHEMBL3352227, “Synthesis, antimycobacterial and antibacterial evaluation of l-[(1R, 2S)-2-fluorocyclopropyl]fluoroquinolone derivatives containing an oxime functional moiety” (Eur J Med Chem, 2014):
Converted amounts (≈) assume the structure as drawn.

Tested on: Klebsiella pneumoniae
Assay: Antibacterial activity against Klebsiella pneumoniae 12-4 after 18 to 24 hrs by standard twofold serial dilution method
Assay type: functional

SMILES | MIC [µg/mL]
CCO/N=C1/CN(c2cc3c(cc2F)c(=O)c(C(=O)O)cn3[C@@H]2C[C@@H]2F)CC1CN (some centres not stated) | 0.25 (≈ 0.595 µM)

Tested on: Klebsiella pneumoniae
Assay: Antibacterial activity against Klebsiella pneumoniae 12-2 after 18 to 24 hrs by standard twofold serial dilution method
Assay type: functional

SMILES | MIC [µg/mL]
CCO/N=C1/CN(c2cc3c(cc2F)c(=O)c(C(=O)O)cn3[C@@H]2C[C@@H]2F)CC1CN (some centres not stated) | 0.25 (≈ 0.595 µM)

Tested on: Staphylococcus epidermidis
Assay: Antibacterial activity against methicillin-sensitive Staphylococcus epidermidis 12-8 after 18 to 24 hrs by standard twofold serial dilution method
Assay type: functional

SMILES | MIC [µg/mL]
CCO/N=C1/CN(c2cc3c(cc2F)c(=O)c(C(=O)O)cn3[C@@H]2C[C@@H]2F)CC1CN (some centres not stated) | 0.5 (≈ 1.19 µM)

Tested on: Staphylococcus epidermidis
Assay: Antibacterial activity against methicillin-sensitive Staphylococcus epidermidis 12-6 after 18 to 24 hrs by standard twofold serial dilution method
Assay type: functional

SMILES | MIC [µg/mL]
CCO/N=C1/CN(c2cc3c(cc2F)c(=O)c(C(=O)O)cn3[C@@H]2C[C@@H]2F)CC1CN (some centres not stated) | 0.06 (≈ 0.143 µM)

Tested on: Escherichia coli
Assay: Antibacterial activity against extended-spectrum beta-lactamase producing Escherichia coli 12-14 after 18 to 24 hrs by standard twofold serial dilution method
Assay type: functional

SMILES | MIC [µg/mL]
CCO/N=C1/CN(c2cc3c(cc2F)c(=O)c(C(=O)O)cn3[C@@H]2C[C@@H]2F)CC1CN (some centres not stated) | 16 (≈ 38.1 µM)

Tested on: Staphylococcus epidermidis
Assay: Antibacterial activity against methicillin-sensitive Staphylococcus epidermidis 12-1 after 18 to 24 hrs by standard twofold serial dilution method
Assay type: functional

SMILES | MIC [µg/mL]
CCO/N=C1/CN(c2cc3c(cc2F)c(=O)c(C(=O)O)cn3[C@@H]2C[C@@H]2F)CC1CN (some centres not stated) | 0.06 (≈ 0.143 µM)

Tested on: Escherichia coli
Assay: Antibacterial activity against extended-spectrum beta-lactamase producing Escherichia coli 12-15 after 18 to 24 hrs by standard twofold serial dilution method
Assay type: functional

SMILES | MIC [µg/mL]
CCO/N=C1/CN(c2cc3c(cc2F)c(=O)c(C(=O)O)cn3[C@@H]2C[C@@H]2F)CC1CN (some centres not stated) | 128 (≈ 304 µM)

Tested on: Klebsiella pneumoniae
Assay: Antibacterial activity against extended-spectrum beta-lactamase producin Klebsiella pneumoniae 12-3 after 18 to 24 hrs by standard twofold serial dilution method
Assay type: functional

SMILES | MIC [µg/mL]
CCO/N=C1/CN(c2cc3c(cc2F)c(=O)c(C(=O)O)cn3[C@@H]2C[C@@H]2F)CC1CN (some centres not stated) | 16 (≈ 38.1 µM)

Tested on: Staphylococcus epidermidis
Assay: Antibacterial activity against methicillin-sensitive Staphylococcus epidermidis 12-3 after 18 to 24 hrs by standard twofold serial dilution method
Assay type: functional

SMILES | MIC [µg/mL]
CCO/N=C1/CN(c2cc3c(cc2F)c(=O)c(C(=O)O)cn3[C@@H]2C[C@@H]2F)CC1CN (some centres not stated) | 0.25 (≈ 0.595 µM)

Tested on: Staphylococcus aureus
Assay: Antibacterial activity against methicillin-resistant Staphylococcus aureus 12-4 after 18 to 24 hrs by standard twofold serial dilution method
Assay type: functional

SMILES | MIC [µg/mL]
CCO/N=C1/CN(c2cc3c(cc2F)c(=O)c(C(=O)O)cn3[C@@H]2C[C@@H]2F)CC1CN (some centres not stated) | 8 (≈ 19 µM)

Tested on: Pseudomonas aeruginosa
Assay: Antibacterial activity against Pseudomonas aeruginosa 12-12 after 18 to 24 hrs by standard twofold serial dilution method
Assay type: functional

SMILES | MIC [µg/mL]
CCO/N=C1/CN(c2cc3c(cc2F)c(=O)c(C(=O)O)cn3[C@@H]2C[C@@H]2F)CC1CN (some centres not stated) | 0.25 (≈ 0.595 µM)

Tested on: Klebsiella pneumoniae
Assay: Antibacterial activity against extended-spectrum beta-lactamase producin Klebsiella pneumoniae 12-7 after 18 to 24 hrs by standard twofold serial dilution method
Assay type: functional

SMILES | MIC [µg/mL]
CCO/N=C1/CN(c2cc3c(cc2F)c(=O)c(C(=O)O)cn3[C@@H]2C[C@@H]2F)CC1CN (some centres not stated) | 1 (≈ 2.38 µM)

Tested on: Klebsiella pneumoniae
Assay: Antibacterial activity against extended-spectrum beta-lactamase producin Klebsiella pneumoniae 12-14 after 18 to 24 hrs by standard twofold serial dilution method
Assay type: functional

SMILES | MIC [µg/mL]
CCO/N=C1/CN(c2cc3c(cc2F)c(=O)c(C(=O)O)cn3[C@@H]2C[C@@H]2F)CC1CN (some centres not stated) | 32 (≈ 76.1 µM)

Tested on: Escherichia coli
Assay: Antibacterial activity against Escherichia coli ATCC 25922 after 18 to 24 hrs by standard twofold serial dilution method
Assay type: functional

SMILES | MIC [µg/mL]
CCO/N=C1/CN(c2cc3c(cc2F)c(=O)c(C(=O)O)cn3[C@@H]2C[C@@H]2F)CC1CN (some centres not stated) | 0.06 (≈ 0.143 µM)

Tested on: Staphylococcus aureus
Assay: Antibacterial activity against methicillin-sensitive Staphylococcus aureus 12-5 after 18 to 24 hrs by standard twofold serial dilution method
Assay type: functional

SMILES | MIC [µg/mL]
CCO/N=C1/CN(c2cc3c(cc2F)c(=O)c(C(=O)O)cn3[C@@H]2C[C@@H]2F)CC1CN (some centres not stated) | 0.06 (≈ 0.143 µM)

Tested on: Streptococcus pneumoniae
Assay: Antibacterial activity against Streptococcus pneumoniae ATCC 49619 after 18 to 24 hrs by standard twofold serial dilution method
Assay type: functional

SMILES | MIC [µg/mL]
CCO/N=C1/CN(c2cc3c(cc2F)c(=O)c(C(=O)O)cn3[C@@H]2C[C@@H]2F)CC1CN (some centres not stated) | 0.03 (≈ 0.0714 µM)

Tested on: Mycobacterium tuberculosis
Assay: Antimycobacterial activity against Mycobacterium tuberculosis H37Rv ATCC 27294 by MABA method
Assay type: functional

SMILES | MIC [µg/mL]
CCO/N=C1/CN(c2cc3c(cc2F)c(=O)c(C(=O)O)cn3[C@@H]2C[C@@H]2F)CC1CN (some centres not stated) | 0.25 (≈ 0.595 µM)

Tested on: Staphylococcus aureus
Assay: Antibacterial activity against methicillin-resistant Staphylococcus aureus 12-2 after 18 to 24 hrs by standard twofold serial dilution method
Assay type: functional

SMILES | MIC [µg/mL]
CCO/N=C1/CN(c2cc3c(cc2F)c(=O)c(C(=O)O)cn3[C@@H]2C[C@@H]2F)CC1CN (some centres not stated) | 8 (≈ 19 µM)

Tested on: Streptococcus pneumoniae
Assay: Antibacterial activity against Streptococcus pneumoniae 12-18 after 18 to 24 hrs by standard twofold serial dilution method
Assay type: functional

SMILES | MIC [µg/mL]
CCO/N=C1/CN(c2cc3c(cc2F)c(=O)c(C(=O)O)cn3[C@@H]2C[C@@H]2F)CC1CN (some centres not stated) | 0.25 (≈ 0.595 µM)

Tested on: Klebsiella pneumoniae
Assay: Antibacterial activity against extended-spectrum beta-lactamase producin Klebsiella pneumoniae 12-4 after 18 to 24 hrs by standard twofold serial dilution method
Assay type: functional

SMILES | MIC [µg/mL]
CCO/N=C1/CN(c2cc3c(cc2F)c(=O)c(C(=O)O)cn3[C@@H]2C[C@@H]2F)CC1CN (some centres not stated) | 8 (≈ 19 µM)

Tested on: Staphylococcus aureus
Assay: Antibacterial activity against methicillin-sensitive Staphylococcus aureus 12-1 after 18 to 24 hrs by standard twofold serial dilution method
Assay type: functional

SMILES | MIC [µg/mL]
CCO/N=C1/CN(c2cc3c(cc2F)c(=O)c(C(=O)O)cn3[C@@H]2C[C@@H]2F)CC1CN (some centres not stated) | 0.06 (≈ 0.143 µM)

Tested on: Staphylococcus epidermidis
Assay: Antibacterial activity against methicillin-resistant Staphylococcus epidermidis 12-6 after 18 to 24 hrs by standard twofold serial dilution method
Assay type: functional

SMILES | MIC [µg/mL]
CCO/N=C1/CN(c2cc3c(cc2F)c(=O)c(C(=O)O)cn3[C@@H]2C[C@@H]2F)CC1CN (some centres not stated) | 1 (≈ 2.38 µM)

Tested on: Klebsiella pneumoniae
Assay: Antibacterial activity against Klebsiella pneumoniae 12-1 after 18 to 24 hrs by standard twofold serial dilution method
Assay type: functional

SMILES | MIC [µg/mL]
CCO/N=C1/CN(c2cc3c(cc2F)c(=O)c(C(=O)O)cn3[C@@H]2C[C@@H]2F)CC1CN (some centres not stated) | 0.25 (≈ 0.595 µM)

Tested on: Staphylococcus aureus
Assay: Antibacterial activity against methicillin-sensitive Staphylococcus aureus 12-4 after 18 to 24 hrs by standard twofold serial dilution method
Assay type: functional

SMILES | MIC [µg/mL]
CCO/N=C1/CN(c2cc3c(cc2F)c(=O)c(C(=O)O)cn3[C@@H]2C[C@@H]2F)CC1CN (some centres not stated) | 0.06 (≈ 0.143 µM)

Tested on: Staphylococcus aureus
Assay: Antibacterial activity against methicillin-resistant Staphylococcus aureus 12-5 after 18 to 24 hrs by standard twofold serial dilution method
Assay type: functional

SMILES | MIC [µg/mL]
CCO/N=C1/CN(c2cc3c(cc2F)c(=O)c(C(=O)O)cn3[C@@H]2C[C@@H]2F)CC1CN (some centres not stated) | 8 (≈ 19 µM)

Tested on: Escherichia coli
Assay: Antibacterial activity against Escherichia coli 12-1 after 18 to 24 hrs by standard twofold serial dilution method
Assay type: functional

SMILES | MIC [µg/mL]
CCO/N=C1/CN(c2cc3c(cc2F)c(=O)c(C(=O)O)cn3[C@@H]2C[C@@H]2F)CC1CN (some centres not stated) | 0.5 (≈ 1.19 µM)

Tested on: Staphylococcus aureus
Assay: Antibacterial activity against Staphylococcus aureus ATCC 25923 after 18 to 24 hrs by standard twofold serial dilution method
Assay type: functional

SMILES | MIC [µg/mL]
CCO/N=C1/CN(c2cc3c(cc2F)c(=O)c(C(=O)O)cn3[C@@H]2C[C@@H]2F)CC1CN (some centres not stated) | < 0.008

Tested on: Pseudomonas aeruginosa
Assay: Antibacterial activity against Pseudomonas aeruginosa 12-14 after 18 to 24 hrs by standard twofold serial dilution method
Assay type: functional

SMILES | MIC [µg/mL]
CCO/N=C1/CN(c2cc3c(cc2F)c(=O)c(C(=O)O)cn3[C@@H]2C[C@@H]2F)CC1CN (some centres not stated) | 1 (≈ 2.38 µM)

Tested on: Escherichia coli
Assay: Antibacterial activity against extended-spectrum beta-lactamase producing Escherichia coli 12-3 after 18 to 24 hrs by standard twofold serial dilution method
Assay type: functional

SMILES | MIC [µg/mL]
CCO/N=C1/CN(c2cc3c(cc2F)c(=O)c(C(=O)O)cn3[C@@H]2C[C@@H]2F)CC1CN (some centres not stated) | 16 (≈ 38.1 µM)

Tested on: Staphylococcus aureus
Assay: Antibacterial activity against methicillin-sensitive Staphylococcus aureus 12-2 after 18 to 24 hrs by standard twofold serial dilution method
Assay type: functional

SMILES | MIC [µg/mL]
CCO/N=C1/CN(c2cc3c(cc2F)c(=O)c(C(=O)O)cn3[C@@H]2C[C@@H]2F)CC1CN (some centres not stated) | 0.015 (≈ 0.0357 µM)

Tested on: Staphylococcus epidermidis
Assay: Antibacterial activity against methicillin-resistant Staphylococcus epidermidis 12-1 after 18 to 24 hrs by standard twofold serial dilution method
Assay type: functional

SMILES | MIC [µg/mL]
CCO/N=C1/CN(c2cc3c(cc2F)c(=O)c(C(=O)O)cn3[C@@H]2C[C@@H]2F)CC1CN (some centres not stated) | 1 (≈ 2.38 µM)

Tested on: Escherichia coli
Assay: Antibacterial activity against extended-spectrum beta-lactamase producing Escherichia coli 12-2 after 18 to 24 hrs by standard twofold serial dilution method
Assay type: functional

SMILES | MIC [µg/mL]
CCO/N=C1/CN(c2cc3c(cc2F)c(=O)c(C(=O)O)cn3[C@@H]2C[C@@H]2F)CC1CN (some centres not stated) | 32 (≈ 76.1 µM)
